Test results taken from the OligoGym collection.
After the bases stand the sugars from the 5' end (letter, count) and the backbone: PS all phosphorothioate, else s phosphorothioate and o phosphodiester by linkage. Methylation of C is not given here. e = 2'-O-(2-methoxyethyl) (MOE); k = constrained ethyl (cEt); d = 2'-deoxy (DNA); m = 2'-O-methyl

Target: HSD17B13
Conditions: ASO, HepaRG

Sequence: AAAAACTTCACCAACG (sugars k3 d10 k3, PS)
- target mRNA inhibition (1 µM): 8%

Sequence: AAAAAGCTCTATTGGT (sugars k3 d10 k3, PS)
- target mRNA inhibition (1 µM): 0%

Sequence: AAAAATCGCTGCTTAG (sugars k3 d10 k3, PS)
- target mRNA inhibition (1 µM): 25%

Sequence: AAAAGGCCCAAGGCTT (sugars k3 d10 k3, PS)
- target mRNA inhibition (1 µM): 30%

Sequence: AAAAGTGTCCTCGATC (sugars k3 d10 k3, PS)
- target mRNA inhibition (1 µM): 17%

Sequence: AAAATATGTCCAGGTT (sugars k3 d10 k3, PS)
- target mRNA inhibition (1 µM): 74%

Sequence: AAAAUAGAGTCGGTCA (sugars k3 d1 m1 d8 k3, PS)
- target mRNA inhibition (1 µM): 62%

Sequence: AAAGACTTTGAGACTC (sugars k3 d1 m1 d8 k3, PS)
- target mRNA inhibition (0.02 µM): 14%
- target mRNA inhibition (0.078 µM): 28%
- target mRNA inhibition (0.313 µM): 42%
- target mRNA inhibition (1 µM): 76%
- target mRNA inhibition (1.25 µM): 66%
- target mRNA inhibition (5 µM): 77%

Sequence: AAAGGTGGGATAAACT (sugars k3 d10 k3, PS)
- target mRNA inhibition (1 µM): 33%

Sequence: AAATAGAGTCGGTCAC (sugars k3 d9 k3 e1, PS)
- target mRNA inhibition (1 µM): 48%

Sequence: AAATAGAGTCGGTCAC (sugars kkdddddddddkekek, PS)
- target mRNA inhibition (1 µM): 50%

Sequence: AAATATGTCCAGGTTG (sugars kkdddddddddkekek, PS)
- target mRNA inhibition (1 µM): 61%

Sequence: AAATCATGGTGTGGAG (sugars k3 d10 k3, PS)
- target mRNA inhibition (1 µM): 1%

Sequence: AAATTATACTTTTCCG (sugars k3 d10 k3, PS)
- target mRNA inhibition (0.02 µM): 0%
- target mRNA inhibition (0.078 µM): 38%
- target mRNA inhibition (0.313 µM): 66%
- target mRNA inhibition (1 µM): 85%
- target mRNA inhibition (1.25 µM): 88%
- target mRNA inhibition (5 µM): 92%

Sequence: AAATTGATACACCAAT (sugars k3 d10 k3, PS)
- target mRNA inhibition (1 µM): 14%

Sequence: AAATTGTCTAAACATC (sugars k3 d10 k3, PS)
- target mRNA inhibition (1 µM): 24%

Sequence: AAATTTCAGTACCCAG (sugars k3 d10 k3, PS)
- target mRNA inhibition (1 µM): 46%

Sequence: AACAACCCAGCCTCGG (sugars k3 d10 k3, PS)
- target mRNA inhibition (1 µM): 20%

Sequence: AACAATATGGGATGAG (sugars k3 d10 k3, PS)
- target mRNA inhibition (1 µM): 39%

Sequence: AACAGTCTTAAACCTT (sugars k3 d9 k3 e1, PS)
- target mRNA inhibition (1 µM): 57%

Sequence: AACCAATATGCTCTGT (sugars k3 d10 k3, PS)
- target mRNA inhibition (1 µM): 51%

Sequence: AACCCAGTATTCACAA (sugars k3 d10 k3, PS)
- target mRNA inhibition (1 µM): 0%

Sequence: AACTAAACATGACAGC (sugars k3 d10 k3, PS)
- target mRNA inhibition (0.02 µM): 8%
- target mRNA inhibition (0.078 µM): 26%
- target mRNA inhibition (0.313 µM): 40%
- target mRNA inhibition (1 µM): 72%
- target mRNA inhibition (1.25 µM): 65%
- target mRNA inhibition (5 µM): 85%

Sequence: AACTAACCTGACACAT (sugars k3 d10 k3, PS)
- target mRNA inhibition (1 µM): 20%

Sequence: AACTACTTCAGTTAGC (sugars k3 d10 k3, PS)
- target mRNA inhibition (1 µM): 53%

Sequence: AACTGAAACGATCCTC (sugars k3 d10 k3, PS)
- target mRNA inhibition (1 µM): 52%

Sequence: AACTTCATAGTGGACT (sugars k3 d9 k3 e1, PS)
- target mRNA inhibition (1 µM): 70%

Sequence: AACTTCATAGTGGACT (sugars k3 d10 k3, PS)
- target mRNA inhibition (1 µM): 68%

Sequence: AACTTTTAGTCAGGTA (sugars k3 d10 k3, PS)
- target mRNA inhibition (1 µM): 49%

Sequence: AACTUCATAGTGGACT (sugars k3 d1 m1 d8 k3, PS)
- target mRNA inhibition (1 µM): 38%

Sequence: AAGACATTCTAGCCTG (sugars k3 d1 m1 d8 k3, PS)
- target mRNA inhibition (1 µM): 54%

Sequence: AAGACATTCTAGCCTG (sugars kkdddddddddkekek, PS)
- target mRNA inhibition (1 µM): 25%

Sequence: AAGAGGCTAGGGAAAT (sugars k3 d10 k3, PS)
- target mRNA inhibition (1 µM): 66%

Sequence: AAGAGTCAGTATCCTC (sugars k3 d10 k3, PS)
- target mRNA inhibition (1 µM): 63%

Sequence: AAGATAAGTAGATGGT (sugars k3 d10 k3, PS)
- target mRNA inhibition (0.02 µM): 7%
- target mRNA inhibition (0.078 µM): 26%
- target mRNA inhibition (0.313 µM): 58%
- target mRNA inhibition (1 µM): 79%
- target mRNA inhibition (1.25 µM): 77%
- target mRNA inhibition (5 µM): 89%

Sequence: AAGATATTGATATACG (sugars k3 d10 k3, PS)
- target mRNA inhibition (1 µM): 45%

Sequence: AAGAUACCCAGGTTGC (sugars k3 d1 m1 d8 k3, PS)
- target mRNA inhibition (1 µM): 37%

Sequence: AAGCAGAATTGTGAAC (sugars k3 d10 k3, PS)
- target mRNA inhibition (1 µM): 18%

Sequence: AAGGAGCTAGATACTC (sugars k3 d10 k3, PS)
- target mRNA inhibition (1 µM): 19%

Sequence: AAGTAAGGTAAAGTCT (sugars k3 d10 k3, PS)
- target mRNA inhibition (1 µM): 20%

Sequence: AAGTAGGAGTAGATGA (sugars k3 d10 k3, PS)
- target mRNA inhibition (1 µM): 0%

Sequence: AAGTCCAGAATAGAGT (sugars k3 d10 k3, PS)
- target mRNA inhibition (1 µM): 60%

Sequence: AAGTGCTTTTGTGATC (sugars k3 d10 k3, PS)
- target mRNA inhibition (1 µM): 41%

Sequence: AAGTTAGCCCCCAGGA (sugars k3 d10 k3, PS)
- target mRNA inhibition (1 µM): 36%

Sequence: AAGTUAGCCCCCAGGA (sugars k3 d1 m1 d8 k3, PS)
- target mRNA inhibition (1 µM): 0%

Sequence: AATACATTAGCAAGCT (sugars k3 d10 k3, PS)
- target mRNA inhibition (1 µM): 45%
